Results: patent publication US5780653A, “Nitrophenyl, 10-deacetylated substituted taxol derivatives as dual functional cytotoxic/radiosensitizers” (Vivorx Pharmaceuticals, Inc., priority 1995, dated 1998)

What was measured:
[1] = intravenous infusion every 2-3 weeks, patients; cited from earlier work
[2] = test system: three human ovarian cancer cell lines; conditions: cited from earlier work
[3] = cited from earlier work
[4] = test system: cervical carcinoma cell lines; conditions: cited from earlier work
[5] = test system: breast adenocarcinoma cell line MCF-7; assay: In vitro cytotoxicity of paclitaxel derivatives (macroscopic colony formation); assay type: cell-based
Protocol: Taxol derivatives were assayed for their cytotoxic activities on tumor cell lines in vitro. The breast adenocarcinoma cell line MCF-7 was chosen as a model for the cytotoxicity assay. The cell line was maintained in RPMI 1640 medium supplemented with 10% fetal bovine serum. For the cell survival experiments, a number of 100 mm petri dishes were plated with 5×10^5 cells. Exponentially growing cells were exposed to paclitaxel or paclitaxel derivatives at various concentrations 24 hours later. After exposure to paclitaxel and derivatives for various times, the cells were rinsed, trypsinized and washed with medium. The cells were resuspended as single cell suspensions, counted with a particle counter, plated and incubated for macroscopic colony formation. Following a one to two week incubation, the colonies were fixed with methanol/acetic acid, stained with crystal violet and colonies with more than 50 cells counted. […] The survival was reported as the fraction of cells surviving after exposure to paclitaxel or derivatives thereof. As an example, the cytotoxicity of the derivative synthesized in Example 9, i.e., 3'-Desphenyl-3'-(4-nitrophenyl)-N-debenzoyl-N-(t-butoxycarbonyl)-10-deacetyltaxol, is reported herein.

[6] = test system: grade III human astrocytoma cell line, G18; conditions: paclitaxel pretreatment and gamma irradiation; cited from earlier work
tubulin = assay: In vitro microtubule assembly of paclitaxel derivatives (turbidity, absorbance at 350 nm); assay type: biochemical; conditions: for absorbance (at 350 nm), tubulin polymerization at 10° C. / absorbance (at 350 nm), tubulin polymerization at 37° C.: 10 μM tubulin, 10 μM taxol or derivative; for absorbance (at 350 nm), tubulin polymerization at 10° C.: pH 6.8, 10° C.; for absorbance (at 350 nm), tubulin polymerization at 37° C.: pH 6.8, 37° C.
Excerpt: Paclitaxel inhibits cell replication in the mitotic phase of the cell cycle by promoting polymerization and stabilization of microtubules. Microtubules are polymers of tubulin in dynamic equilibrium with tubulin heterodimers that are composed of alpha and beta protein subunits. Unlike other antimicrotubule agents, such as the vinca alkaloids (that induce microtubule disassembly), paclitaxel shifts the equilibrium towards microtubule assembly. Paclitaxel-induced microtubules are excessively stable, thereby inhibiting the dynamic reorganization of the microtubule network. The cytotoxic properties of paclitaxel are caused by its unique disruptive effects on microtubules. Thus the activity of taxol or taxol analogs and derivatives may be assessed in vitro by their ability to polymerize tubulin into microtubules (Chaudhary et al. Journal of the American Chemical Society 116:4097-4098 (1994). The polymerization of tubulin is accompanied by a concomitant increase in solution turbidity associated with the formation of microtubules. This increase in turbidity can be assayed spectrophotometrically.
Thus, 10 μM tubulin was dissolved in 0.1M MES buffer containing 100 μM GTP and 0.5 mM MgCl2 with a final pH of 6.8. 10 μM tubulin was added to the buffer. 10 μM of taxol (or taxol derivatives) was added to the buffer at 0° C. and the absorbance of the sample measured at 350 nm as the sample temperature increased rapidly to 37° C. with the aid of a circulating water bath connected to the sample chamber of the spectrophotometer. The maximum absorbance of the sample was measured and compared to that of taxol as a control to determine any change in activity of the paclitaxel derivatives.

[7] = test system: human breast and lung cell lines; conditions: cited from earlier work
[8] = test system: HL-60 human leukemic cell line; conditions: cited from earlier work
microtubule = conditions: compared with paclitaxel; cited from earlier work
[9] = compared with paclitaxel; cited from earlier work
rodent tumors = conditions: some rodent tumors; cited from earlier work
central nervous system = conditions: large-scale clinical trials; cited from earlier work
cultured mammalian cells = conditions: cited from earlier work

CC(=O)O[C@H]1C(=O)[C@@]2(C)[C@H]([C@H](OC(=O)c3ccccc3)[C@]3(O)C[C@H](OC(=O)[C@H](O)[C@@H](NC(=O)c4ccccc4)c4ccccc4)C(C)=C1C3(C)C)[C@]1(OC(C)=O)CO[C@@H]1C[C@@H]2O [paclitaxel]
serum half-life [1]: up to 19 h | radiosensitization, human ovarian cancer cell lines [2]: radiosensitization | in vivo radiopotentiation [3]: potent in vivo radiopotentiating agent | enhancement in radiosensitization, cervical carcinoma [4]: have not observed an enhancement in radiosensitization | viability at 0.01 µM ([5]; Homo sapiens, MCF7, 24 h, read-out: surviving fraction of MCF-7 cells): 6% | enhancement of radiosensitivity, G18 [6]: significant enhancement of radiosensitivity | absorbance (at 350 nm), tubulin polymerization at 10° C. (tubulin): 0.0 | absorbance (at 350 nm), tubulin polymerization at 37° C. (tubulin): 0.295 | polymerization of tubulin at 10° C. (tubulin; taxol (10 μM), 10° C.): would not polymerize tubulin | polymerization of tubulin at 37° C. (tubulin; taxol (10 μM), 37° C.): would promote polymerization | enhancement in radiosensitization, human breast and lung [7]: have not observed an enhancement in radiosensitization | radiosensitization, HL-60 [8]: radiosensitization

3'-Desphenyl-3'-(4-nitrophenyl)-N-debenzoyl-N-(isopropoxycarbonyl)-10-deacetyltaxol [Example 9]
surviving fraction of MCF-7 cells ([5]; 10 nM, 24 hours): 2×10^-3 | increase in cytotoxicity over unmodified taxol ([5]; MCF-7, 10 nM, 24 hours): 30 fold

CC(=O)O[C@@]12CO[C@@H]1C[C@H](O)[C@@]1(C)C(=O)[C@H](O)C3=C(C)[C@@H](OC(=O)[C@H](O)[C@@H](NC(=O)OC(C)(C)C)c4ccccc4)C[C@@](O)([C@@H](OC(=O)c4ccccc4)[C@H]21)C3(C)C [docetaxel]
microtubule assembly activity (microtubule): more active than paclitaxel | cytotoxicity [9]: more active than paclitaxel

COCC(O)Cn1ccnc1[N+](=O)[O-] (centres unmarked) [misonidazole]
hypoxic-cell sensitization, rodent tumors (rodent tumors): excellent hypoxic-cell sensitizer | toxicity to the central nervous system (central nervous system): toxic to the central nervous system | hypoxic-cell sensitization, cultured mammalian cells (cultured mammalian cells): excellent hypoxic-cell sensitizer

CC(=O)O[C@@]12CO[C@@H]1C[C@H](O)[C@@]1(C)C(=O)[C@H](O)C3=C(C)[C@@H](OC(=O)C(O)C(NC(=O)OC(C)(C)C)c4ccc([N+](=O)[O-])o4)C[C@@](O)([C@@H](OC(=O)c4ccccc4)[C@H]21)C3(C)C (some centres unmarked) [Example 6]
absorbance (at 350 nm), tubulin polymerization at 10° C. (tubulin): 0.37 | absorbance (at 350 nm), tubulin polymerization at 37° C. (tubulin): 0.71 | tubulin polymerization activity relative to taxol (ratio of absorbances) (tubulin; 37° C.): 2.4 times that of taxol | activity in tubulin assembly compared with unmodified taxol (tubulin; both at low temperature and at physiological temperatures): substantially more active in tubulin assembly than unmodified taxol
